Laboratory results published in patent US20250034586A1, “METHOD FOR EDITING BANANA GENES” (Tropic Biosciences UK Limited, priority 2021, published 2025).

How the values were obtained:
ACO1, Ma01_g11540 = assay: Trait co-editing in selected embryos (PBE #3); type: cell-based, banana
Procedure: (§1) We transformed ECS as described previously in Example 6, using the new co-editing plasmids detailed in Table 11 above. Embryos were regenerated as detailed previously, either on media without selection, with 25 mg/L G418, 25 μg/L CSF or 50 μg/L CSF. Initial genotyping of all plasmids tested:
(§2) • All with CsVMV-rAPOBEC1 CBE (rAPOBEC+nCas9 (D10A) PBE from Zong et al. 2017*) and nosP-NptII • pMol_0925 (sgGFP-pNOS::Kan::tOCS-pCsVMV::nCas9PBE1::tg7-Dummy-pTaU6::sg1GFP_58-pTaU6::sg2GFP_59) • pMol_0934 (sgGFP, sgALS1-pNOS::Kan::tOCS-pCsVMV::nCas9PBE1::tg7-taU6::MaALS1sg2_2021-pTaU6::sg1GFP_58-pTaU6::sg2GFP_59) • pMol_0935 (sgGFP, sgALS2-pNOS::Kan::tOCS-pCsVMV::nCas9PBE1::tg7-taU6::MaALS2sg2_2023-pTaU6::sg1GFP_58-pTaU6::sg2GFP_59) • pMol_0926 (sgPPO2, sgALS1-pNOS::Kan::tOCS-pCsVMV::nCas9PBE1::tg7-taU6::MaALS1sg2_2021-pTaU6::sg1PPO2_2961-pTaU6::sg2PPO2_2962-pTaU6::sg3PPO2_2963) • pMol_0927 (sgPPO2, sgALS1-pNOS::Kan::tOCS-pCsVMV::nCas9PBE1::tg7-taU6::MaALS1sg2_2021-pTaU6::sg3PPO2_2963-pTaU6::sg4PPO2_2964) • pMol_0928 (sgACO1, sgALS1-pNOS::Kan::tOCS-pCsVMV::nCas9PBE1::tg7-taU6::MaALS1sg2_2021-pTaU6::sg1ACO1_2965-pTaU6::sg2ACO1_2966-pTaU6::sg3ACO1_2967) • pMol_0929 (sgPPO2, sgALS2-pNOS::Kan::tOCS-pCsVMV::nCas9PBE1::tg7-taU6::MaALS2sg2_2023-pTaU6::sg1PPO2_2961-pTaU6::sg2PPO2_2962-pTaU6::sg3PPO2_2963) • pMol_0930 (sgPPO2, sgALS2-pNOS::Kan::tOCS-pCsVMV::nCas9PBE1::tg7-taU6::MaALS2sg2_2023-pTaU6::sg3PPO2_2963-pTaU6::sg4PPO2_2964) • pMol_0931 (sgACO1, sgALS2-pNOS::Kan::tOCS-pCsVMV::nCas9PBE1::tg7-taU6::MaALS2sg2_2023-pTaU6::sg1ACO1_2965-pTaU6::sg2ACO1_2966-pTaU6::sg3ACO1_2967) ECS were left to ‘recover’ after transformation for 1 week in CS+cefo 300 mg/L. We regenerated embryos in 4 different conditions: • 1. No selection • 2. Stable G418 selection (in EDM only 2-3 months) from PBE #3 only (PBE #1/2 plasmids only have mCherry, not NptII) • 3. 25 μg/L chlorsulfuron (in EDM only 2-3 months) • 4. 50 μg/L chlorsulfuron (in EDM only 2-3 months)
(§3) gDNA from embryos and plantlets was extracted and qPCR was used to test for the presence of integrated tDNA in the plant genome. Three independent qPCRs were run on each sample with different sets of primers (listed below) spanning the tDNA, ranging from the left to right border. An additional qPCR was run on an endogenous banana gene (actin) for normalisation of Ct values. All qPCRs were run on the LightCycler® 96 System (Roche) using PowerUp™ SYBR® Green Master Mix (Thermo Fisher Scientific™).
(§4) For edit validation, amplicons for each target gene (als1, als2, ppo2, aco1) were made using Q5® High-Fidelity 2× Master Mix (New England Biolabs, NEB) using reaction settings listed below. PCR products were purified using Monarch® PCR & DNA Cleanup Kit (NEB) according to manufacturer's specifications. The amplicons were after validated by Sanger sequencing.

PPO2, Ma07_g03540 = assay: Trait co-editing in selected embryos (PBE #3); type: cell-based, banana; settings: for PPO2 edited embryos total: 16 embryos tested
Procedure: as §1, §2, §3, §4

COc1nc(C)nc(NC(=O)NS(=O)(=O)c2ccccc2Cl)n1 [CSF, chlorsulfuron] was tested, and the “Percentage edited ACO1 embryos” value (ACO1, Ma01_g11540; 25CSF selection) was 75, the “ACO1 edited embryos total” value (ACO1, Ma01_g11540; 25CSF selection, 8 embryos tested) was 6 and the “Percentage edited ACO1 embryos” value (ACO1, Ma01_g11540; 50CSF selection) was 100. For the same compound, the “ACO1 edited embryos total” value (ACO1, Ma01_g11540; 50CSF selection, 7 embryos tested) was 7, the “Percentage edited PPO2 embryos” value (PPO2, Ma07_g03540; 25CSF selection) was 37.5 and the “PPO2 edited embryos total” value (PPO2, Ma07_g03540; 25CSF selection) was 6. For the same compound, the “Percentage edited PPO2 embryos” value (PPO2, Ma07_g03540; 50CSF selection) was 43.75 and the “PPO2 edited embryos total” value (PPO2, Ma07_g03540; 50CSF selection) was 7.
